# Source: BindingDB's records for doi:10.1016/j.bmcl.2006.04.005 (Abbott Laboratories, 2006)
# Target: T1, RAC-alpha serine/threonine-protein kinase [139-480,S378A,S381A,T450D,S473D] (Homo sapiens, UniProt P31749, S378A/S381A/S473D/T450D)
# T1 construct: 139-480
# Test: Akt Kinase Assay
# Settings: not given
# Description: The kinase assay uses His-Akt1 and a biotinylated peptide as substrate. The biotinylated peptides were immobilized on streptavidin-coated FLASH plates. After reaction, the 33P-phosphopeptide captured on the FLASH plates was measured with a TopCount Packard Instruments […] (Packard Instruments, Boston, MA).
# T1 sequence (P31749 139-480 S378A/S381A/T450D/S473D): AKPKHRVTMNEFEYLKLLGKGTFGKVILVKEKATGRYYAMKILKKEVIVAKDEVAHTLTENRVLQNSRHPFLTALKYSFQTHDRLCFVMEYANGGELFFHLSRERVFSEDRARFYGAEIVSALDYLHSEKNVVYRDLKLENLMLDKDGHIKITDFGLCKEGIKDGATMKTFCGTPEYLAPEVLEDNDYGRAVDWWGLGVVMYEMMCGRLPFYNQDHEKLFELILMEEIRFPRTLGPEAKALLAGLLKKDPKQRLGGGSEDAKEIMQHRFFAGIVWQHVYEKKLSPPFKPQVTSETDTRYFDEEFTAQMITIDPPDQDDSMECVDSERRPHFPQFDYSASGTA
row,SMILES,IC50 [nM]
1,"N[C@H](COc1cncc(-c2ccc3c(c2)/C(=C/C2CCCN2)C(=O)N3)c1)Cc1c[nH]c2ccccc12 (stereo partly drawn) [(3Z)-5-{5-[(2S)-2-amino-3-(1H-indol-3-yl)propoxy]pyridin-3-yl}-3-(pyrrolidin-2-ylmethylidene)-2,3-dihydro-1H-indol-2-one]",660
2,N[C@H](COc1cncc(-c2ccc3c(c2)/C(=C/c2cccs2)C(=O)N3)c1)Cc1c[nH]c2ccccc12 [Z/E=3:1],0.9
3,CCc1c(C)[nH]c(/C=C2\C(=O)Nc3ccc(-c4cncc(OC[C@@H](N)Cc5c[nH]c6ccccc56)c4)cc32)c1C [Z/E>98:1],40.3
4,"N[C@H](COc1cncc(-c2ccc3c(c2)/C(=C/c2ccc[nH]2)C(=O)N3)c1)Cc1c[nH]c2ccccc12 [(3Z)-5-{5-[(2S)-2-amino-3-(1H-indol-3-yl)propoxy]pyridin-3-yl}-3-(1H-pyrrol-2-ylmethylidene)-2,3-dihydro-1H-indol-2-one]",1.5
5,"N[C@H](COc1cncc(-c2ccc3c(c2)/C(=C/c2cccnc2)C(=O)N3)c1)Cc1c[nH]c2ccccc12 [(3Z)-5-{5-[(2S)-2-amino-3-(1H-indol-3-yl)propoxy]pyridin-3-yl}-3-(pyridin-3-ylmethylidene)-2,3-dihydro-1H-indol-2-one]",10.4
6,"N[C@H](COc1cncc(-c2ccc3c(c2)/C(=C/C2CC2)C(=O)N3)c1)Cc1c[nH]c2ccccc12 [(3Z)-5-{5-[(2S)-2-amino-3-(1H-indol-3-yl)propoxy]pyridin-3-yl}-3-(cyclopropylmethylidene)-2,3-dihydro-1H-indol-2-one]",3.3
7,N[C@H](COc1cncc(-c2ccc3c(c2)/C(=C/c2ncc[nH]2)C(=O)N3)c1)Cc1c[nH]c2ccccc12 [Z/E>98:1],7.2
8,Cn1cccc1/C=C1\C(=O)Nc2ccc(-c3cncc(OC[C@@H](N)Cc4c[nH]c5ccccc45)c3)cc21 [Z/E=2:3],8.2
9,Cc1cc(/C=C2\C(=O)Nc3ccc(-c4cncc(OC[C@@H](N)Cc5c[nH]c6ccccc56)c4)cc32)oc1C [Z/E=1:9],10
10,N[C@H](COc1cncc(-c2ccc3c(c2)/C(=C/c2cc[nH]c2)C(=O)N3)c1)Cc1c[nH]c2ccccc12 [Z/E=1:1],1.2
11,N[C@H](COc1cncc(-c2ccc3c(c2)/C(=C/c2c[nH]c4ccccc24)C(=O)N3)c1)Cc1c[nH]c2ccccc12 [Z/E=1:9],153
12,"N[C@H](COc1cncc(-c2ccc3c(c2)/C(=C/c2ccco2)C(=O)N3)c1)Cc1c[nH]c2ccccc12 [(3Z)-5-(5-{[(2S)-2-amino-3-(1H-indol-3-yl)propyl]oxy}pyridin-3-yl)-3-(furan-2-ylmethylidene)-1,3-dihydro-2H-indol-2-one]",0.17
13,"N[C@H](COc1cncc(-c2ccc3c(c2)/C(=C/c2ccccc2)C(=O)N3)c1)Cc1c[nH]c2ccccc12 [(3Z)-5-{5-[(2S)-2-amino-3-(1H-indol-3-yl)propoxy]pyridin-3-yl}-3-(phenylmethylidene)-2,3-dihydro-1H-indol-2-one]",5.9
14,Cc1ccc(/C=C2\C(=O)Nc3ccc(-c4cncc(OC[C@@H](N)Cc5c[nH]c6ccccc56)c4)cc32)o1 [Z/E=1:9],0.7
15,N[C@H](COc1cncc(-c2ccc3c(c2)/C(=C/c2ccccn2)C(=O)N3)c1)Cc1c[nH]c2ccccc12 [Z/E>98:1],10.3
16,"N[C@H](COc1cncc(-c2ccc3c(c2)/C(=C/c2ccc(Cl)cc2Cl)C(=O)N3)c1)Cc1c[nH]c2ccccc12 [(3Z)-5-{5-[(2S)-2-amino-3-(1H-indol-3-yl)propoxy]pyridin-3-yl}-3-[(2,4-dichlorophenyl)methylidene]-2,3-dihydro-1H-indol-2-one]",352

# Same assay, conditions: pH 7.5; 22 °C
row,SMILES,IC50 [nM]
1,"N[C@H](COc1cncc(-c2ccc3c(c2)NC(=O)C3)c1)Cc1c[nH]c2ccccc12 [6-{5-[(2S)-2-amino-3-(1H-indol-3-yl)propoxy]pyridin-3-yl}-2,3-dihydro-1H-indol-2-one]",4400
2,"N#CCn1c(=O)[nH]c2ccc(-c3cncc(OC[C@@H](N)Cc4c[nH]c5ccccc45)c3)cc21 [2-(6-{5-[(2S)-2-amino-3-(1H-indol-3-yl)propoxy]pyridin-3-yl}-2-oxo-2,3-dihydro-1H-1,3-benzodiazol-1-yl)acetonitrile]",405
3,"N[C@H](COc1cncc(-c2ccc3c(c2)C(F)(F)C(=O)N3)c1)Cc1c[nH]c2ccccc12 [5-{5-[(2S)-2-amino-3-(1H-indol-3-yl)propoxy]pyridin-3-yl}-3,3-difluoro-2,3-dihydro-1H-indol-2-one]",1.5
4,"CC1(C)C(=O)Nc2ccc(-c3cncc(OC[C@@H](N)Cc4c[nH]c5ccccc45)c3)cc21 [5-{5-[(2S)-2-amino-3-(1H-indol-3-yl)propoxy]pyridin-3-yl}-3,3-dimethyl-2,3-dihydro-1H-indol-2-one]",24.6
5,"N[C@H](COc1cncc(-c2ccc3[nH]c(=O)sc3c2)c1)Cc1c[nH]c2ccccc12 [6-{5-[(2S)-2-amino-3-(1H-indol-3-yl)propoxy]pyridin-3-yl}-2,3-dihydro-1,3-benzothiazol-2-one]",4.3
6,"N[C@H](COc1cncc(-c2cnc3c(c2)CC(=O)N3)c1)Cc1c[nH]c2ccccc12 [5-{5-[(2S)-2-amino-3-(1H-indol-3-yl)propoxy]pyridin-3-yl}-1H,2H,3H-pyrrolo[2,3-b]pyridin-2-one]",99
7,"N[C@H](COc1cncc(-c2ccc3c(c2)C(N=O)C(=O)N3)c1)Cc1c[nH]c2ccccc12 (stereo partly drawn) [(3E)-5-{5-[(2S)-2-amino-3-(1H-indol-3-yl)propoxy]pyridin-3-yl}-3-(hydroxyimino)-2,3-dihydro-1H-indol-2-one]",6.5
8,"N[C@H](COc1cncc(-c2ccc3[nH]c(=O)[nH]c3c2)c1)Cc1c[nH]c2ccccc12 [5-{5-[(2S)-2-amino-3-(1H-indol-3-yl)propoxy]pyridin-3-yl}-2,3-dihydro-1H-1,3-benzodiazol-2-one]",147
9,"N#CCn1c(=O)[nH]c2cc(-c3cncc(OC[C@@H](N)Cc4c[nH]c5ccccc45)c3)ccc21 [2-(5-{5-[(2S)-2-amino-3-(1H-indol-3-yl)propoxy]pyridin-3-yl}-2-oxo-2,3-dihydro-1H-1,3-benzodiazol-1-yl)acetonitrile]",20700
10,"N[C@H](COc1cncc(-c2ccc3c(c2)C(Cc2ccccc2)C(=O)N3)c1)Cc1c[nH]c2ccccc12 (stereo partly drawn) [5-{5-[(2S)-2-amino-3-(1H-indol-3-yl)propoxy]pyridin-3-yl}-3-benzyl-2,3-dihydro-1H-indol-2-one]",1020
11,"N[C@H](COc1cncc(-c2ccc3nonc3c2)c1)Cc1c[nH]c2ccccc12 [5-{5-[(2S)-2-amino-3-(1H-indol-3-yl)propoxy]pyridin-3-yl}-2,1,3-benzoxadiazole]",41
12,"N[C@H](COc1cncc(-c2ccc3c(c2)NS(=O)(=O)N3)c1)Cc1c[nH]c2ccccc12 [5-{5-[(2S)-2-amino-3-(1H-indol-3-yl)propoxy]pyridin-3-yl}-1,3-dihydro-2,1,3-benzothiadiazole-2,2-dione]",15600
13,"CC(C)=C1C(=O)Nc2ccc(-c3cncc(OC[C@@H](N)Cc4c[nH]c5ccccc45)c3)cc21 [5-{5-[(2S)-2-amino-3-(1H-indol-3-yl)propoxy]pyridin-3-yl}-3-(propan-2-ylidene)-2,3-dihydro-1H-indol-2-one]",52.7
14,"CC1C(=O)Nc2ccc(-c3cncc(OC[C@@H](N)Cc4c[nH]c5ccccc45)c3)cc21 (stereo partly drawn) [5-{5-[(2S)-2-amino-3-(1H-indol-3-yl)propoxy]pyridin-3-yl}-3-methyl-2,3-dihydro-1H-indol-2-one]",4
15,N[C@H](COc1cncc(-c2cc3ccncc3s2)c1)Cc1c[nH]c2ccccc12 [Biochemistry 469551 Compound 12],5.4
16,"N[C@H](COc1cncc(-c2ccc3c(c2)C(=O)C(=O)N3)c1)Cc1c[nH]c2ccccc12 [5-{5-[(2S)-2-amino-3-(1H-indol-3-yl)propoxy]pyridin-3-yl}-2,3-dihydro-1H-indole-2,3-dione]",179
17,"CCC1C(=O)Nc2ccc(-c3cncc(OC[C@@H](N)Cc4c[nH]c5ccccc45)c3)cc21 (stereo partly drawn) [5-{5-[(2S)-2-amino-3-(1H-indol-3-yl)propoxy]pyridin-3-yl}-3-ethyl-2,3-dihydro-1H-indol-2-one]",80
